We go through 9 compounds from US5409956A, “Indan derivative and thromboxane antagonist containing the same” (Zeria Pharmaceutical Co., Ltd., priority 1991, dated 1995).

Assay [1] relates to U46619 induced contraction in rat aorta. Description: Inhibitory effect on U46619 induced contraction in rat aorta. It is filed as cell-based, SD male rat. To be noted: relaxation of contraction by 10^-7 M U46619, rat thoracic aorta, 37° C., logit method. The method, then:
Inhibitory effect on U46619 induced contraction in rat aorta:
The sample was kept at 37° C., bubbled with 95% oxygen gas containing 5% CO2, and suspended in a 10 ml organ bath filled with a Krebs-Henseleit solution at 2 g resting tension. 10^-7 M of U46619 which is a stable active substance of TXA2 was added portionwise. After the contraction responses were stabilized, the test compound was added to the organ bath, and its antagonism was evaluated. A concentration-relaxation curve was obtained, to which was applied a logit method to obtain pIC50 values.

Assay [2] deals with Human platelet aggregation. Description: Human platelet aggregation inhibitory action (in vitro), U46619-induced. In kind it is cell-based. To be noted: human PRP, approximately 4×10^5 cells/ml, 1 μM U46619, 37° C., Born's method, read-out: IC50 (concentration required for inhibiting the platelet aggregation induced by 1 μM of U46619 by 50%). The method, then: Human platelet aggregation inhibitory action (in vitro):
Blood samples were collected from healthy humans. 9 parts by volume of the collected blood was mixed with 1 part by volume of an aqueous 3.8%(W/v) trisodium citrate, and the mixture was subjected to centrifugal separation for collecting the supernatant-to prepare a platelet rich plasma (PRP). A further centrifugation was-performed to separate a platelet poor plasma (PPP). PRP was diluted with PPP to adjust the number of platelets to approximately 4×10^5 cells/ml. Subsequently, 200 micro liters of PRP were added with the […] and 25 micro liters of an equimolar aqueous sodium hydrogencarbonate solution, and stirred for 2 minutes at 37° C. Thereafter, U46619 was added thereto for inducing platelet aggregation. The platelet aggregation was measured in accordance with a Born's method ("Nature", vol 194, page 927 (1962)), and inhibition against the platelet aggregation was examined. The platelet aggregation inhibitory action of the test compounds was expressed as the IC50 value (concentration required for inhibiting the platelet aggregation induced by 1 μM of U46619 by 50%).

`O=C(O)COc1ccc2c(c1)CC(CNS(=O)(=O)c1ccccc1)C2` (stereo not shown) [Example 29, 2-(phenylsulfonylaminomethyl)indan-5-hydroxyacetic acid] gave an IC50 in assay [1] of 31.6 nM. As to `O=C(O)Cc1ccc2c(c1)CC(CNS(=O)(=O)c1ccccc1)C2` (stereo not shown) [Example 1, [2-(phenylsulfonylaminomethyl)indan-5-yl]acetic acid], the figures for the IC50 in assay [1] and in assay [2] were 12.9 nM and 720 nM, respectively. For `O=C(O)COc1ccc(CCNS(=O)(=O)c2ccccc2)cc1` [Control compound, 4-(2-phenylsulfonylaminoethyl)phenoxy acetic acid, reference compound], in that order: 427 nM and 2530 nM. With `O=C(O)CCC(=O)c1ccc2c(c1)CC(CNS(=O)(=O)c1ccc(Cl)cc1)C2` (stereo not shown) [Example 40], the IC50 in assay [2] stood at 1120 nM.

`O=C(O)Cc1ccc2c(c1)CC(CCNS(=O)(=O)c1ccccc1)C2` (stereo not shown) [Example 25, [2-(2-phenylsulfonylaminoethyl)indan-5-yl]acetic acid]: the IC50 was 316 nM in assay [1] and 2450 nM in assay [2]. `O=C(O)COc1ccc2c(c1)CC(CNS(=O)(=O)c1ccc(Cl)cc1)C2` (stereo not shown) [Example 30, 2-[(4-chlorophenyl)sulfonylaminomethyl)indan-5-hydroxyacetic acid]: the IC50 in assay [2] was found to be 310 nM. Consider `O=C(O)Cc1ccc2c(c1)CC(CNS(=O)(=O)c1ccc(Cl)cc1)C2` (stereo not shown) [Example 24, [2-[(4-chlorophenyl)sulfonylaminomethyl)indan-5-yl]acetic acid], for which the IC50 in assay [1] is 3.02 nM; in assay [2], 770 nM.

`O=C(O)c1ccc2c(c1)CC(CCNS(=O)(=O)c1ccc(Cl)cc1)C2` (stereo not shown) [Example 34, [2-[2-(4-chlorophenyl)sulfonylaminoethyl)indan-5-yl]-carboxylic acid]: the IC50 in assay [2] was 600 nM. The same measure, in the same setting: for `O=C(O)c1ccc2c(c1)CC(CNS(=O)(=O)c1ccc(Cl)cc1)C2` (stereo not shown) [Example 33, [2-[(4-chlorophenyl)sulfonylaminomethyl]-indan-5-yl]carboxylic acid] the value was 850 nM.
